Measurements taken from US4031094A, “N-meta-trifluoromethylpiperazines” (Synthelabo, priority 1972, dated 1977).
Counter-ions that a name gives are not always drawn.

Experiments:
rat = assay: anorexigenic effects in the rat trained to satisfy its alimentary needs in a period of 5 hours each 24 hours; assay type: in vivo; conditions: oral, read-out: Anorexia ED 50
Description: 1. a study of the anorexigenic effects in the rat trained to satisfy its alimentary needs in a period of 5 hours each 24 hours;
(§1) In every case, the compounds under test were administered orally. The results obtained are given in the table below which also gives the LD 50's (and their 95% confidence limits) of the compounds studied determined intravenously and orally.

LD 50 orally = conditions: in vivo; oral; 95% confidence limits in parentheses
Description: as §1

[1] = known properties of comparison compounds; cited from earlier work
LD 50 intravenously = conditions: in vivo; intravenous; 95% confidence limits in parentheses
Description: as §1

[2] = electric "battle test" (Tedeschi & al); assay type: in vivo; conditions: oral; read-out: Electric Battle Test ED 50
Description: 3. the electric "battle test" (Tedeschi & al, J. Pharmacol., 1959, 125, pages […]); and
as §1

mice = assay: motor activity in mice in the hour following administration; assay type: in vivo; conditions: 5 mg/kg, oral
Description: 2. the motor activity in mice in the hour following administration of the compound under test;
as §1

[3] = overall comparison of therapeutic index, activity and toxicity; assay type: in vivo; conditions: compared with compounds II and III
Description: The compounds of formula IA and their salts have interesting pharmacological properties which make them of therapeutic interest.
as §1

SMILES | ED50 (rat) | LD50 (LD 50 orally) | known pharmacological properties [1] | LD50 (LD 50 intravenously) | ED50 [2] | solubility in water (solubility) | Motor Activity (mice) | activity, overall [3] | therapeutic index [3] | toxicity [3] | solubility in organic solvents (solubility; most usual organic solvents)
FC(F)(F)c1cccc(N2CCNCC2)c1 [Compound II, N-(m-trifluoromethylphenyl)-piperazine, reference compound] | 25 mg/kg | 200 mg/kg | known to possess anorexigenic and anxiolytic properties | 80 mg/kg | 15 mg/kg |  |  |  |  |  | 
COC(=O)CCN1CCN(c2cccc(SC(F)(F)F)c2)CC1 [Example 5, N-(β-methoxycarbonyl-ethyl)-N'-(m-trifluoromethylthiophenyl)-piperazine hydrochloride] |  |  |  |  |  | soluble in water |  |  |  |  | 
Cl.N#CCCN1CCN(c2cccc(SC(F)(F)F)c2)CC1 [IA, N-(β-cyano-ethyl)-N'-(m-trifluoromethylthiophenyl)-piperazine hydrochloride] | 11 mg/kg | 335 mg/kg |  | 180 mg/kg | 8 mg/kg | soluble in water | 0% | higher activity | better therapeutic index than compounds II and III | lower toxicity | 
FC(F)(F)Sc1cccc(N2CCNCC2)c1 [III, N-(m-trifluoromethylthiophenyl)-piperazine] | 15 mg/kg | 210 mg/kg | known to possess anorexigenic properties | 90 mg/kg | 15 mg/kg | soluble in water | 0% |  |  |  | soluble in water and in most usual organic solvents
